Results published in patent publication US20120065187A1 (ALCON RESEARCH, LTD, priority 2008, published 2012).
Structures can show the parent of a compound that is named as a salt.

How the values were obtained:
human H1 = molecular target: T1, human H1 (Homo sapiens, UniProt P35367); assay: In vitro histamine receptor cell-based assay (aequorin bioluminescence), H1 antagonism; details: CHO-K1 cells expressing human H1 and aequorin; histamine at EC80; read-out: H1 Antagonist EC50
T1 construct: host or cells: CHO-K1
T1 sequence (P35367 whole entry): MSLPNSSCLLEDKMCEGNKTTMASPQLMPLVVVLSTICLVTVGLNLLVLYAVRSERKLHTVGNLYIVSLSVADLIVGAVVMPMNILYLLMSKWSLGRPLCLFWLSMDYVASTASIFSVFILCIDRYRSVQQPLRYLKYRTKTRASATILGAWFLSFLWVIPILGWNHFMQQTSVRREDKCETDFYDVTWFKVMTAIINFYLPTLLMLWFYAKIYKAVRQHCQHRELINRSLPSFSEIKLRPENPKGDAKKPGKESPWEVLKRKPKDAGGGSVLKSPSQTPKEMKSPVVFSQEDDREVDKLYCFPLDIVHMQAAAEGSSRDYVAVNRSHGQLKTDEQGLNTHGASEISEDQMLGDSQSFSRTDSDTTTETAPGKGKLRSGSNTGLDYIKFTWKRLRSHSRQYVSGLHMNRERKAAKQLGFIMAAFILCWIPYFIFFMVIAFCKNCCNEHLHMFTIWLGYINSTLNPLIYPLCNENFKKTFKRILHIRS
How it was run: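 Antagonism read as drop in aequorin luminescence after histamine challenge at a predetermined EC80, following 15 min compound pretreatment at room temperature. Cells: CHO-K1 carrying human H1, or H4 with Gα16; signal as AUC or amplitude, normalised to 10 μM diphenhydramine (H1) or JNJ7777120 (H4).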

human H4 = molecular target: T2, human H4 (Homo sapiens, UniProt Q9H3N8); assay: In vitro histamine receptor cell-based assay (aequorin bioluminescence), H4 antagonism; details: CHO-K1 cells expressing human H4, aequorin and Gα16; histamine at EC80; read-out: H4 Antagonist EC50
T2 construct: host or cells: CHO-K1
How it was run: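 Antagonism read as loss of aequorin luminescence after histamine (EC80 final) addition, following 15 min room-temperature compound pretreatment of coelenterazine-h-loaded (5 μM) CHO-K1 cells co-expressing human H4 and Gα16. Efficacy given relative to 10 μM JNJ7777120; agonism excluded in separate no-histamine runs.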

| EC50 (human H1) [µM] | EC50 (human H4) [µM] | Structure (SMILES) |
| --- | --- | --- |
| > 10 | > 10 | FC(F)(F)c1ccc2nc(N3CCNCC3)n3nc(C(F)(F)F)nc3c2c1 [Example 121, 5-(piperazin-1-yl)-2,9-bis(trifluoromethyl)-[1,2,4]triazolo[1,5-c]quinazoline] |
| > 10 | < 10 | Cc1nc2c3cc(C(F)(F)F)c(Cl)cc3nc(N3CCN(C)CC3)n2n1 [Example 122, 8-chloro-2-methyl-5-(4-methylpiperazin-1-yl)-9-(trifluoromethyl)-[1,2,4]triazolo[1,5-c]quinazoline] |
| > 10 | < 10 | Cc1nc2c3cc(C(F)(F)F)c(Cl)cc3nc(N3CCNCC3)n2n1 [Example 123, 8-chloro-2-methyl-5-(piperazin-1-yl)-9-(trifluoromethyl)-[1,2,4]triazolo[1,5-c]quinazoline] |
| > 10 | < 10 | Cc1nc2c3cc(C(F)(F)F)cc(F)c3nc(N3CCNCC3)n2n1 [Example 128, 7-fluoro-2-methyl-5-(piperazin-1-yl)-9-(trifluoromethyl)-[1,2,4]triazolo[1,5-c]quinazoline hydrochloride] |
| > 10 | < 10 | Cc1nc2c3cc(F)c(C(F)(F)F)cc3nc(N3CCNCC3)n2n1 [Example 130, 9-fluoro-2-methyl-5-(piperazin-1-yl)-8-(trifluoromethyl)-[1,2,4]triazolo[1,5-c]quinazoline hydrochloride] |
| > 10 | < 10 | Cc1nc2c3cc(Cl)c(C(F)(F)F)cc3nc(N3CCN(C)CC3)n2n1 [Example 131, 9-chloro-2-methyl-5-(4-methylpiperazin-1-yl)-8-(trifluoromethyl)-[1,2,4]triazolo[1,5-c]quinazoline hydrochloride] |
| > 10 | < 10 | Cc1nc2c3cc(Cl)c(C(F)(F)F)cc3nc(N3CCNCC3)n2n1 [Example 132, 9-chloro-2-methyl-5-(piperazin-1-yl)-8-(trifluoromethyl)-[1,2,4]triazolo[1,5-c]quinazoline hydrochloride] |
| > 10 | < 10 | Cc1nc2c3cc(OC(F)(F)F)ccc3nc(N3CCNCC3)n2n1 [Example 134, 2-methyl-5-(piperazin-1-yl)-9-(trifluoromethoxy)-[1,2,4]triazolo[1,5-c]quinazoline hydrochloride] |
| < 10 | < 10 | Cc1nc2c3cc(Br)ccc3nc(N3CCN(C)CC3)n2n1 [Example 135, 9-bromo-2-methyl-5-(4-methylpiperazin-1-yl)-[1,2,4]triazolo[1,5-c]quinazoline] |
| > 10 | < 10 | C=Cc1ccc2nc(N3CCN(C)CC3)n3nc(C)nc3c2c1 [Example 137, 2-methyl-5-(4-methylpiperazin-1-yl)-9-vinyl-[1,2,4]triazolo[1,5-c]quinazoline] |
| > 10 | < 10 | C=Cc1ccc2nc(N3CCNCC3)n3nc(C)nc3c2c1 [Example 138, 2-methyl-5-(piperazin-1-yl)-9-vinyl-[1,2,4]triazolo[1,5-c]quinazoline] |
| > 10 | < 10 | CCc1ccc2nc(N3CCN(C)CC3)n3nc(C)nc3c2c1 [Example 139, 9-ethyl-2-methyl-5-(4-methylpiperazin-1-yl)-[1,2,4]triazolo[1,5-c]quinazoline] |
| > 10 | < 10 | CCc1ccc2nc(N3CCNCC3)n3nc(C)nc3c2c1 [Example 140, 9-ethyl-2-methyl-5-(piperazin-1-yl)-[1,2,4]triazolo[1,5-c]quinazoline] |
| < 10 | < 10 | CN1CCN(c2nc3ccc(Cl)cc3c3ocnc23)CC1 [Example 141, 8-chloro-4-(4-methylpiperazin-1-yl)oxazolo[4,5-c]quinoline] |
| > 10 | < 10 | Clc1ccc2nc(N3CCNCC3)c3ncoc3c2c1 [Example 142, 8-Chloro-4-piperazinyl-1,3-oxazolo[4,5-c]quinoline] |
| > 10 | < 10 | Cc1nc2c(N3CCNCC3)nc3ccc(Cl)cc3c2o1 [Example 144, 8-chloro-2-methyl-4-(piperazin-1-yl)oxazolo[4,5-c]quinoline] |
| < 10 | < 10 | Cc1nc2c(N3CCNCC3)nc3cc(F)c(F)cc3c2o1 [Example 146, 7,8-difluoro-2-methyl-4-(piperazin-1-yl)oxazolo[4,5-c]quinoline] |
| > 10 | < 10 | CN1CCN(c2nc3ccc(Cl)cc3c3ccoc23)CC1 [Example 147, 8-Chloro-4-(4-methylpiperazin-1-yl)furo[2,3-c]quinoline] |
| > 10 | < 10 | Clc1ccc2nc(N3CCNCC3)c3occc3c2c1 [Example 148, 8-Chloro-4-(piperazin-1-yl)furo[2,3-c]quinoline] |
| < 10 | < 10 | CN1CCN(c2nc3ccc(Cl)cc3c3ccsc23)CC1 [Example 149, 8-Chloro-4-(4-methylpiperazin-1-yl)thieno[2,3-c]quinoline] |

| EC50 (human H1) [µM] | EC50 (human H4) [µM] | Structure (SMILES) |
| --- | --- | --- |
| < 10 | < 10 | Cn1cc2c(n1)c(N1CCNCC1)nc1ccc(Cl)cc12 [Example 151, 8-Chloro-2-methyl-4-(piperazin-1-yl)-2H-pyrazolo[3,4-c]quinoline] |
| > 10 | < 10 | CN1CCN(c2nc3ccc(C(F)(F)F)cc3c3cn(C)nc23)CC1 [Example 155, 2-Methyl-4-(4-methylpiperazinyl)-8-(trifluoromethyl)pyrazolo[3,4-c]quinoline] |
| < 10 | < 10 | Cn1cc2c(n1)c(N1CCNCC1)nc1ccc(C(F)(F)F)cc12 [Example 156, 2-Methyl-4-piperazinyl-8-(trifluoromethyl)pyrazolo[3,4-c]quinoline HCl salt] |
| > 10 | < 10 | CN1CCN(c2nc3ccc(C(F)(F)F)cc3c3c[nH]nc23)CC1 [Example 157, 4-(4-Methylpiperazinyl)-8-(trifluoromethyl)pyrazolo[3,4-c]quinoline] |
| > 10 | > 10 | Cn1cnc2c(N3CCNCC3)nc3ccc(Cl)cc3c21 [Example 158, 8-Chloro-1-methyl-4-(piperazin-1-yl)-1H-imidazo[4,5-c]quinoline] |
| > 10 | < 10 | CN1CCN(c2nc3ccc(Cl)cc3c3c2ncn3C)CC1 [Example 159, 8-Chloro-1-methyl-4-(4-methylpiperazin-1-yl)-1H-imidazo[4,5-c]quinoline] |
| > 10 | > 10 | Cc1nc2c(N3CCN(C)CC3)nc3ccc(Cl)cc3c2[nH]1 [Example 162, 8-Chloro-2-methyl-4-(4-methylpiperazinyl)imidazo[4,5-c]quinoline] |
| > 10 | > 10 | Cc1nc2c(N3CCNCC3)nc3ccc(Cl)cc3c2[nH]1 [Example 163, 8-Chloro-2-methyl-4-piperazinylimidazo[4,5-c]quinoline] |
| > 10 | < 10 | Cc1nc2c(N3CCNCC3)nc3ccc(Cl)cc3n2n1 [Example 164, 8-chloro-2-methyl-4-(piperazin-1-yl)-[1,2,4]triazolo[1,5-a]quinoxaline] |
| < 10 | < 10 | Clc1ccc2nc(N3CCNCC3)c3nocc3c2c1 [Example 167, 8-Chloro-4-(piperazin-1-yl)isoxazolo[3,4-c]quinoline] |
| > 10 | < 10 | Clc1cc2nc(N3CCNCC3)c3nncn3c2cc1Cl [Example 168, 7,8-dichloro-4-(piperazin-1-yl)-[1,2,4]triazolo[4,3-a]quinoxaline] |
| > 10 | < 10 | Fc1c(C(F)(F)F)ccc2nc(N3CCNCC3)c3nncn3c12 [Example 169, 9-fluoro-4-(piperazin-1-yl)-8-(trifluoromethyl)-[1,2,4]triazolo[4,3-a]quinoxaline] |
| > 10 | < 10 | CN1CCN(c2nc3c(F)c(C(F)(F)F)ccc3n3cnnc23)CC1 [Example 170, 6-fluoro-4-(4-methylpiperazin-1-yl)-7-(trifluoromethyl)-[1,2,4]triazolo[4,3-a]quinoxaline] |
| > 10 | < 10 | Fc1c(C(F)(F)F)ccc2nc(N3CCNCC3)c3nnnn3c12 [Example 172, 9-fluoro-4-(piperazin-1-yl)-8-(trifluoromethyl)tetrazolo[1,5-a]quinoxaline] |
| > 10 | < 10 | CC(C)c1ccc2nc(N3CCN(C)CC3)c3nncn3c2c1 [Example 173, 8-isopropyl-4-(4-methylpiperazin-1-yl)-[1,2,4]triazolo[4,3-a]quinoxaline] |
| > 10 | < 10 | C/C=C/c1ccc2nc(N3CCN(C)CC3)c3nncn3c2c1 [Example 174, (E)-4-(4-methylpiperazin-1-yl)-8-(prop-1-enyl)-[1,2,4]triazolo[4,3-a]quinoxaline] |
| > 10 | < 10 | CCCc1ccc2nc(N3CCN(C)CC3)c3nncn3c2c1 [Example 175, 4-(4-methylpiperazin-1-yl)-8-propyl-[1,2,4]triazolo[4,3-a]quinoxaline] |
| > 10 | > 10 | CC(C)Nc1ccc2nc(N3CCN(C)CC3)c3nncn3c2c1 [Example 176, N-isopropyl-4-(4-methylpiperazin-1-yl)-[1,2,4]triazolo[4,3-a]quinoxalin-8-amine] |
| > 10 | < 10 | CN1CCN(c2nc3ccc(C(F)(F)F)cc3n3ccnc23)CC1 [Example 177] |

| Structure (SMILES) | EC50 (human H1) [µM] | EC50 (human H4) [µM] |
| --- | --- | --- |
| Cn1cc2c(n1)c(N1CC[N+](C)(C)CC1)nc1ccc(Cl)cc12 [Example 154, 4-(8-Chloro-2-methyl-2H-pyrazolo[3,4-c]quinolin-4-yl)-1,1-dimethylpiperazin-1-ium] | > 10 | > 10 |
